According to paper PMC5891627, “Binding Specificity of Two PBPs in the Yellow Peach Moth Conogethes punctiferalis (Guenée)” (Frontiers in Physiology, 2018):
Read-outs that look alike come from different tables or passages of the source.

Experiments:
CpunPBP5 = CpunPBP5 (Conogethes punctiferalis, UniProt A0A0M4FIS7); assay: Fluorescence displacement (competitive, 1-NPN) binding assay; conditions: for binding affinity to CpunPBP5 (in words): ranking among the 24 tested ligands
Protocol: (§1) The fluorescence intensity was recorded on a FluoroMax-4 spectrophotometer (Horiba Scientific, USA) at room temperature using a 1 cm light path fluorimeter quartz cuvette. The fluorescent probe N-phenyl-1-naphthylamine (1-NPN) and all the tested chemicals were dissolved in HPLC purity methanol. The final concentration was prepared 1 mM. […] The fluorescence of 1-NPN was excited at 337 nm and emission spectra were recorded between […]. […] The GraphPad Prism 5 (GraphPad Software, Inc.) was used to estimate the K1−NPN (KD of complex protein /1-NPN) values by nonlinear regression for a unique site of binding. It was assumed that the proteins were 100% active, with a stoichiometry of 1:1 (protein:ligand) at saturation. […] In the equation, [1-NPN] is the free concentration of 1-NPN, and K1−NPN is the dissociation constant of the complex protein /1-NPN.

CpunPBP2 = CpunPBP2 (Conogethes punctiferalis, UniProt A0A1D6X8W8); assay: as above; conditions: for IC50: 1-NPN 2 μM as fluorescent reporter, 2 μM protein; for binding affinity to CpunPBP2 (in words): ranking among the 24 tested ligands
Sequence of CpunPBP2 (A0A1D6X8W8 entry or part of it): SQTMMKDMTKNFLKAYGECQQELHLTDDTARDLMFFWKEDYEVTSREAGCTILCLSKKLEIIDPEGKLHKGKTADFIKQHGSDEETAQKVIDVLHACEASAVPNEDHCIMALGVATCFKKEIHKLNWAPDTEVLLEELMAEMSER
Protocol: as §1

[1] = pH = 7.4, 1-NPN 2 μM as fluorescent reporter, 2 μM protein, read-out: IC50
[2] = pH = 7.4, calculated from IC50: KD = [IC50]/(1+[1-NPN]/K1-NPN), read-out: KD (μM), calculated dissociation constant
[3] = ratio of fluorescence intensity at the pheromone concentration of 6 mM to the initial fluorescence intensity, pH = 7.4
[4] = read-out: KD (μM), calculated dissociation constant, pH = 7.4, calculated from IC50: KD = [IC50]/(1+[1-NPN]/K1-NPN)
[5] = ratio of fluorescence intensity at the pheromone concentration of 6 mM to the initial fluorescence intensity, pH = 7.4, read-out: Int (%)

Sequence of CpunPBP5 (A0A0M4FIS7 entry or part of it): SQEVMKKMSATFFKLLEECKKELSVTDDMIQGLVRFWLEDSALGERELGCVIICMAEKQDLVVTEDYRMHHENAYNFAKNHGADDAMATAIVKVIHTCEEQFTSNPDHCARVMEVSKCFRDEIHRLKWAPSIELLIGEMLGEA

Row | Compound | IC50 (CpunPBP5; [1]) | Kd (CpunPBP5; [2]) | Int (%) (CpunPBP5; [3]) | IC50 (CpunPBP2; pH = 7.4, read-out: IC50) | Kd (CpunPBP2; [2]) | Int (%) (CpunPBP2; [3]) | Kd (CpunPBP5) | Kd (CpunPBP2; read-out: dissociation constant (KD) of CpunPBP2/1-NPN complex, direct titration of 2 μM protein with 1-NPN, Scatchard plot, pH 7.4) | IC50 (CpunPBP5) | activity at 6000 µM (CpunPBP5; pH 7.4, read-out: Int (%)) | binding affinity to CpunPBP5 (in words) (CpunPBP5) | activity at 6000 µM (CpunPBP2; pH 7.4, read-out: Int (%)) | IC50 (CpunPBP2; pH = 7.4) | binding affinity to CpunPBP2 (in words) (CpunPBP2) | Kd (CpunPBP2; [4]) | activity at 6000 µM (CpunPBP5; [5]) | activity at 6000 µM (CpunPBP2; [5])
1 | C=C1CC/C=C(\C)CC[C@@H]2[C@@H]1CC2(C)C (relative stereo) [Trans-caryopyllene] | 4.67 ± 0.02 µM | 3.78 ± 0.01 µM | 45.87 ± 0.10% | 6.17 ± 0.14 µM | 3.58 ± 0.08 µM | 50.42 ± 0.51% | – | – | – | – | – | – | – | – | – | – | –
2 | c1ccc(Nc2cccc3ccccc23)cc1 [1-NPN, N-phenyl-1-naphthylamine, reference compound] | – | – | – | – | – | – | 0.58 ± 0.04 µM | 0.76 ± 0.1 µM | – | – | – | – | – | – | – | – | –
3 | CCCCCCCCCCCCCCO [1-tetrodecanol] | – | – | – | – | – | – | 2.86 ± 0.02 µM | – | 3.53 ± 0.03 µM | 42.29 ± 0.12% | highest binding affinity | 45.55 ± 0.38% | 3.94 ± 0.14 µM | highest binding affinity | 2.28 ± 0.08 µM | – | –
4 | CCC(C)CCCC(C)C (centres unmarked) [2,6-Dimethyloctane] | 8.2 ± 0.1 µM | 6.64 ± 0.08 µM | – | 11 ± 0.32 µM | 6.38 ± 0.19 µM | – | – | – | – | – | – | – | – | – | – | 54.82 ± 0.07% | 78.17 ± 0.43%
5 | CCCCCCCCCC=O [Decanal] | 15.2 ± 0.6 µM | 12.5 ± 0.49 µM | – | 13.1 ± 0.24 µM | 7.62 ± 0.14 µM | – | – | – | – | – | – | – | – | – | – | 72.6 ± 0.11% | 72.86 ± 0.24%
6 | CCCCCCC=O [Heptanal] | 19.7 ± 0.95 µM | 15.9 ± 0.77 µM | – | 17.9 ± 0.83 µM | 10.4 ± 0.48 µM | – | – | – | – | – | minimum binding abilities | – | – | – | – | 68.32 ± 0.21% | 84.85 ± 0.31%
7 | C=C(C)[C@H]1CC=C(C)CC1 [Limonene] | 10.7 ± 0.22 µM | 8.67 ± 0.18 µM | 60.13 ± 0.09% | 11.9 ± 0.67 µM | 6.92 ± 0.39 µM | 82.86 ± 0.44% | – | – | – | – | – | – | – | – | – | – | –
8 | C=CC(C)(O)CCC=C(C)C (centres unmarked) [Linalool] | – | – | – | – | – | – | 13.7 ± 1.15 µM | – | 17 ± 1.42 µM | – | minimum binding abilities | – | 22 ± 4.72 µM | minimum binding affinities | 12.8 ± 2.74 µM | 66.92 ± 0.13% | 72.27 ± 0.43%
9 | CCCCCCCCC=O [Nonanal] | 13.1 ± 0.62 µM | 10.6 ± 0.78 µM | – | 14.7 ± 0.47 µM | 8.5 ± 0.27 µM | – | – | – | – | – | – | – | – | – | – | 65.83 ± 0.28% | 77.22 ± 0.07%
10 | CCCCCCCCCCCCCCCC(=O)O [Palmitic acid] | 7.27 ± 0.06 µM | 5.89 ± 0.47 µM | – | 14.2 ± 0.71 µM | 8.27 ± 0.41 µM | – | – | – | – | – | – | – | – | – | – | 53.54 ± 0.01% | 73.64 ± 0.06%
11 | CCCCCC/C=C/C=O [Trans-2-nonenal] | 9.62 ± 0.58 µM | 7.79 ± 0.48 µM | – | 22.3 ± 1.3 µM | 12.9 ± 0.76 µM | – | – | – | – | – | – | – | – | minimum binding affinities | – | 59 ± 0.62% | 86.46 ± 0.38%
12 | CCCCC/C=C/C=O [Trans-2-octanal] | 12.2 ± 0.66 µM | 9.89 ± 0.53 µM | 62.12 ± 0.30% | 12.3 ± 0.84 µM | 7.15 ± 0.49 µM | 62.32 ± 0.13% | – | – | – | – | – | – | – | – | – | – | –
13 | CCCCCCCCCCC=O [Undecanal] | 8.67 ± 0.04 µM | 7.01 ± 0.03 µM | – | 7.49 ± 0.15 µM | 4.34 ± 0.08 µM | – | – | – | – | – | – | – | – | – | – | 58.66 ± 0.31% | 56.59 ± 0.32%
14 | COc1cc(C=O)ccc1O [Vanillin] | – | – | – | – | – | – | 20.4 ± 2.35 µM | – | 25.1 ± 2.9 µM | – | minimum binding abilities | – | 19.9 ± 1 µM | – | 11.6 ± 0.58 µM | 71.19 ± 0.36% | 85.4 ± 0.31%
15 | CC/C=C\CCO [cis-3-hexen-1-ol] | – | – | – | – | – | – | 14.9 ± 1.12 µM | – | 18.4 ± 1.38 µM | 66.81 ± 0.61% | minimum binding abilities | 89.59 ± 0.25% | 34.5 ± 3.2 µM | minimum binding affinities | 20 ± 1.85 µM | – | –
16 | CC(=O)/C=C/C1C(C)=CCCC1(C)C (stereo not drawn) [α-ionone] | – | – | – | – | – | – | 6.79 ± 0.08 µM | – | 8.39 ± 0.1 µM | 55.28 ± 0.1% | – | 61.8 ± 1.49% | 10.7 ± 0.97 µM | – | 6.22 ± 0.56 µM | – | –
17 | CC1=CCC2CC1C2(C)C (stereo not drawn) [α-pinene] | – | – | – | – | – | – | 11.4 ± 1.02 µM | – | 14.1 ± 1.26 µM | – | – | – | 27.9 ± 4.3 µM | minimum binding affinities | 16.2 ± 2.5 µM | 74.88 ± 0.39% | 77.7 ± 0.33%
18 | C=CC(=C)CC/C=C(\C)CCC=C(C)C [β-farnesene] | 5.25 ± 0.02 µM | 4.25 ± 0.02 µM | 47.47 ± 0.12% | 2.82 ± 0.19 µM | 1.63 ± 0.11 µM | 40.51 ± 0.78% | – | – | – | – | – | – | – | – | – | – | –
19 | CC(=O)/C=C/C1=C(C)CCCC1(C)C [β-ionone] | – | – | – | – | – | – | 9.85 ± 0.38 µM | – | 12.2 ± 0.47 µM | 62.6 ± 0.79% | – | 88.04 ± 0.58% | 17.3 ± 0.84 µM | – | 10.1 ± 0.49 µM | – | –
20 | C=C1CCC2CC1C2(C)C (stereo not drawn) [β-pinene] | – | – | – | – | – | – | 9.3 ± 0.31 µM | – | 11.5 ± 0.39 µM | 68.43 ± 0.63% | – | 80.45 ± 0.68% | 21 ± 2.26 µM | minimum binding affinities | 12.2 ± 1.31 µM | – | –
21 | Hexenal | 11.7 ± 0.66 µM | 9.44 ± 0.53 µM | 60.86 ± 0.49% | 34.56 ± 0.12 µM | 20 ± 0.68 µM | 83.11 ± 0.15% | – | – | – | – | – | – | – | minimum binding affinities | – | – | –
